PubChem BioAssay (NCI)
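Interpolation was linear, between the two tested concentrations surrounding the appropriate level; five concentrations were tested over 48 hours in 96-well plates. TGI: total growth inhibition.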

Key:
Assay in all cases: NCI tumour cell line growth inhibition, 48 h
[1] = tested on: SK-MEL-5 melanoma
[2] = tested on: SF-268 CNS
[3] = tested on: HOP-62 NSCLC
[4] = tested on: DU-145 prostate
[5] = tested on: M14 melanoma
[6] = tested on: SN12C renal
[7] = tested on: OVCAR-3 ovarian
[8] = tested on: CCRF-CEM leukemia
[9] = tested on: HL-60(TB) leukemia
[10] = tested on: RXF 393 renal
[11] = tested on: HOP-92 NSCLC
[12] = tested on: MOLT-4 leukemia
[13] = tested on: OVCAR-5 ovarian
[14] = tested on: NCI-H226 lung
[15] = tested on: ACHN renal
[16] = tested on: SF-295 CNS
[17] = tested on: K-562 leukemia
[18] = tested on: NCI-H460 lung
[19] = tested on: MALME-3M melanoma
[20] = tested on: 786-0 renal

| Compound | TGI [1] | TGI [2] | TGI [3] | TGI [4] | TGI [5] | TGI [6] | TGI [7] | TGI [8] | TGI [9] | TGI [10] | TGI [11] | TGI [12] | TGI [13] | TGI [14] | TGI [15] | TGI [16] | TGI [17] | TGI [18] | TGI [19] | TGI [20] |
| --- | --- | --- | --- | --- | --- | --- | --- | --- | --- | --- | --- | --- | --- | --- | --- | --- | --- | --- | --- | --- |
| Oc1[nH]c2ccccc2c1N=NC(=S)N1CCCC1 | 8.5 µM | > 58.3 µM | 26.2 µM | > 100 µM | 8.44 µM | 31.9 µM | 17 µM | 6.78 µM | 8.83 µM | 3.55 µM | 39.3 µM | 5.75 µM | > 82.6 µM | 1.88 µM | 4.55 µM | 17.1 µM | > 42.7 µM | 9.42 µM | 9.82 µM | 17.3 µM |
| c1ccc2nc3cc4c(cc3nc2c1)NC12CCCCC1CC1=C(CCCC1)N42 (stereo not given) | 5.16 µM | > 10 µM | > 10 µM | > 10 µM | 6.35 µM | 6.48 µM | 5.03 µM | 4.9 µM | 8.31 µM | 6.3 µM | > 10 µM | 5.25 µM | > 10 µM | 6.57 µM | > 10 µM | > 10 µM | 5.5 µM | > 10 µM | 5.33 µM | > 10 µM |
| O=C(O)c1cc(N(Cc2ccccc2O)Cc2cc(O)ccc2O)ccc1O | > 100 µM | > 100 µM | > 100 µM | > 100 µM | > 100 µM | > 100 µM | > 100 µM | > 100 µM | > 100 µM | > 100 µM | > 100 µM | > 100 µM | > 100 µM | > 100 µM | > 100 µM | > 100 µM | > 100 µM | > 100 µM | > 100 µM | > 100 µM |
| COc1nc2c(c(=O)n1C)NC(C(O)C(O)CO)C=N2 (stereo not given) | > 10 µM | > 10 µM | > 10 µM | > 10 µM | > 10 µM | > 10 µM | > 10 µM | > 10 µM | > 10 µM | > 10 µM | > 10 µM | > 10 µM | > 10 µM | > 10 µM | > 10 µM | > 10 µM | > 10 µM | > 10 µM | > 10 µM | > 10 µM |
